According to patent US20110124703A1, “MOLECULES COMPRISING A BIS(HETEROARYL)MALEIMIDE BACKBONE, AND USE THEREOF IN THE INHIBITION OF DDE/DDD ENZYMES” (priority 2008, published 2011):
Where two headings read alike, the source gives them in different places.

Assays:
[1] = molecular target: T1, MOS1 transposase (MBP-MOS1) (Drosophila mauritiana, UniProt Q7JQ07); experiment: In vitro transposition test; format: biochemical; details: 80 μM compound; for Transposition frequencies: mean of at least five experiments; for Inhibition factors: ratio of transposition frequency with DMSO to that with compound
T1 construct: made in house
T1 sequence (Q7JQ07 whole entry): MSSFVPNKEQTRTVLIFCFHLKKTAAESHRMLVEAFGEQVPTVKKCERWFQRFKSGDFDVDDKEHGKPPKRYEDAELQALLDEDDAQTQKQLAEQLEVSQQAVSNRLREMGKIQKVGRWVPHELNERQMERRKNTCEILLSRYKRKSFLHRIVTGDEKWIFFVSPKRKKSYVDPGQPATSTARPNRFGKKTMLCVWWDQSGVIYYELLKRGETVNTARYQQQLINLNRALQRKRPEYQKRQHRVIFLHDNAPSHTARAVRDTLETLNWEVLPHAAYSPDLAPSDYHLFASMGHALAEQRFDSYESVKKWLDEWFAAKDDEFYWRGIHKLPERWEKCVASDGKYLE
Experimental: The in vitro transposition reactions were carried out using pBC-3T3 both as the donor DNA and as the target, as was carried out previously for transposition tests in bacteria (16). The transposition reaction mixtures contained 10 mM of Tris-HCl (pH 9), 50 mM of NaCl, 0.5 mM of dithiothreitol, 20 mM of MgCl2, 0.5 mM of EDTA, 100 ng of BSA, 80 nM of MBP-MOS1 and 600 ng of supercoiled pBC-3T3 in a volume of 20 μl. Inhibitors (final concentration 80 μM) or DMSO were added to the reaction mixtures before the transposase. The reactions were carried out freely for 30 min at 30° C. then 10 μl of the stop solution (0.4% SDS, 0.4 μg/μl proteinase K) were added and the reaction mixtures were incubated at 37° C. for an additional 30 min, then at 65° C. for 10 min. The products were extracted with phenol-chloroform and precipitated in ethanol with 1 μg of yeast tRNA using conventional techniques. 10% of the reaction mixture was co-transformed with 0.01 ng of pBS-SK(−), used as a positive control for transformation (Stratagene), in 45 μl of electrocompetent Escherichia coli JM109 cells (2 mm cell, 1.5 kV in a MicroPulser™ from BioRad). The bacteria were cultivated at 37° C. for 1 hour in SOC medium. Appropriate dilutions of each reaction were spread on LB-ampicillin gelose (100 μg/ml) to evaluate the transformation efficacy and on LB-tetracyclin gelose (12.5 μg/ml) and LB-chloramphenicol gelose (80 μg/ml) in order to evaluate the frequency of transposition. The frequency of transposition is the number of Tet® colonies divided by the number of Chloram® colonies. The transformation efficacy was monitored from the number of Amp® colonies. The effect of the various compounds was expressed by calculating an inhibition factor (IF) such that IF=the frequency of transposition of the control (in DMSO) divided by the frequency of transposition obtained with the compound.
The transposition test was carried out using a purified MOS1 protein fused with the MBP and the pBC-3T3 plasmid carrying a pseudo-Mos1 transposon. In this test, pBC-3T3 was used as the pseudo-Mos1 donor, or as the target for integration of the transposon (16). […] The concentration of drugs used for the initial screening was 80 μM.

MOS1-ITR complexes = molecular target: T2, MOS1-ITR complexes (Drosophila mauritiana, UniProt Q7JQ07); experiment: Electrophoretic mobility shift test (EMSA), assembly of MOS1-ITR complexes; format: binding; parameters: key to Assembly of complexes: +: complexes observed; −: absence of complexes; +/: traces of SEC1; details: for IC50: MOS1-ITR bond
T2 construct: made in house
T2 sequence (Q7JQ07 whole entry, one chain of several): as the sequence (Q7JQ07 whole entry) above
Experimental: The ITR30 was prepared and labeled as described above (8) with certain minor modifications: after labelling, the DNA was purified further on a native polyacrylamide gel. The binding reactions were carried out in 50 mM of NaCl, 0.5 mM of DTT, 10 mM of Tris (pH 9), 5% of glycerol and 100 ng of BSA. Each 20 μl reaction contained 0.2 pmol of ITR30 labelled with ^32P, […] of purified MBP-MOS1, 5 mM of EDTA, and 1 μl of the test compound (final concentration 400 μM) or DMSO. The mixtures were incubated at 30° C. for two hours. The complexes were separated using discontinuous native polyacrylamide gels with 4% to 6% of TBE 0.25× (acrylamide/bisacrylamide 30:0.93) containing 5% of glycerol. The gels were subjected to 200 V for 3 hours then autoradiographed.
The capacity of the ten molecules to inhibit the appearance of complexes formed in vitro between MOS1 and ITR 3′ (8) was tested using the gel mobility shift technique (EMSA). MOS1-ITR complexes were formed with a radiolabelled ITR 3′ (ITR30) in the presence of a 400 μM concentration of molecule. This concentration was at least 2.5 times higher than the highest IC50 value measured for the ten compounds.

[2] = molecular target: T1, MOS1 transposase (MBP-MOS1); experiment: In vitro excision test; format: biochemical
Experimental: These tests were carried out under the same conditions as for the in vitro transposition tests, with the exception of the fact that the incubation was carried out at 37° C. instead of 30° C. In order to determine the IC50, a range of concentrations of the compound from 1000 to 0.8 μM was used as indicated in the text. After incubation, the reaction was interrupted by adding 2 μl of 10× loading buffer and the products were loaded directly onto a 0.8% TAE 1×-agarose gel containing ethidium bromide. The quantity of backbone liberated was evaluated using the GeneSnap system (SynGene). The percentage inhibition of excision was plotted as a function of the concentration of the compound. The experimental data were adjusted on a sigmoid dose-response curve using Prism software. Each experiment was repeated at least two times.
For a better characterization of the inhibiting activity of these ten compounds and their action mechanisms on the transposition of Mos1, the capacity of the chemical compounds to inhibit excision of the transposon was tested in vitro, using the pBC-3T3 transposon as a donor plasmid. MOS1 triggers excision of the transposon from a donor plasmid, generating two linear DNA fragments, the transposon (1.2 kb) and the plasmid backbone (3.4 kb). After excision, the transposon can be re-inserted in a target. The excision activity of the drug was measured by quantifying the plasmid backbone as it is a final product in the reaction. In the absence of a drug, the transposase released the transposon from the donor plasmid.
In order to determine the concentration of drug necessary to inhibit 50% of the reaction (IC50), the inhibition percentages measured from two independent experiments were plotted as a function of the concentration of drug (FIG. 3b). Similar experiments were carried out with the nine other chemical compounds and the corresponding IC50 values are shown in Table III.

HIV-1 integrase = molecular target: T3, HIV-1 integrase (Human immunodeficiency virus type 1 group M subtype B, UniProt P04585); experiment: 3′ maturation and HIV-1 strand transfer tests; format: biochemical
T3 construct: made in house
Experimental: HIV-1 integrase was purified as described in (32). 200 nM of HIV-1 integrase was incubated in the presence of 6.25 nM of radiolabelled oligonucleotide duplex imitating the end of the LTR U5 in a buffer containing 20 mM of HEPES (pH 7.5), 10 mM of NaCl, 4 mM of DTT, 7.5 mM of MgCl2, 10% of DMSO and various concentrations of drugs. The reaction was carried out for 2 hours at 37° C. and the products were separated on an 18% acrylamide urea gel. The gel was scanned using a phosphorimager and analyzed using Image Quant (Molecular Dynamics) software. Each experiment was carried out in duplicate.
To verify whether the novel group of inhibitors (compounds 1 to 4) is also susceptible of blocking HIV-1 integrase, the activity of compound 4 was tested against the 3′ maturation and strand transfer activities of HIV-1 integrase. The percentage inhibition measured in the two independent experiments were traced as a function of the concentration of compound 4 (FIG. 10). […] It was also an excellent inhibitor of HIV-1 integrase. […] In consequence, MOS1 can be considered as a novel substitute for the identification of inhibitors of HIV-1 integrase.

| SMILES | Transposition frequencies [1] | Inhibition factors [1] | Assembly of complexes (MOS1-ITR complexes; 400 μM compound) | MOS1-ITR complexes in the presence of compound (MOS1-ITR complexes; 400 μM compound) | IC50 (MOS1-ITR complexes) [µM] | IC50 [2] [µM] | excision of the transposon ([2]; highest concentration of the drug (1 mM)) | inhibition of MOS1-ITR complexes (MOS1-ITR complexes; 400 μM compound) [%] | times more active against strand transfer activity than 3′ maturation (HIV-1 integrase) [times] | IC50 (HIV-1 integrase; read-out: IC50 3′ maturation) [µM] | IC50 (HIV-1 integrase; read-out: IC50 strand transfer activity) [µM] |
| --- | --- | --- | --- | --- | --- | --- | --- | --- | --- | --- | --- |
| COc1cccc(OCCOc2cccc(CC3SC(=S)NC3=O)c2)c1 (stereo not drawn) [Compound 8, reference compound] | 5.04 × 10^−6 | 79 | − | completely destabilized |  |  |  |  |  |  |  |
| O=C(O)c1ccc(C2=C(c3ccc(C(=O)O)o3)C(=O)N(c3ccc(O)cc3)C2=O)o1 [Compound 2] | 1.2 × 10^−6 | 33 | − | completely destabilized | 15 |  |  |  |  |  |  |
| O=C(Nc1ccccc1C(=O)O)c1cccc(NC(=O)C(c2ccccc2)c2ccccc2)c1 [Compound 9, reference compound] | 1.64 × 10^−5 | 25 |  |  |  | 150 | completely suppressed | 90 |  |  |  |
| CCOC(=O)C(Cc1ccccc1)N1C(=O)C(c2ccc(C(=O)O)o2)=C(c2ccc(C(=O)O)o2)C1=O (stereo not drawn) [Compound 3] | 4.01 × 10^−6 | 100 | − | completely destabilized | 30 |  |  |  |  |  |  |
| O=C(O)C(Cc1ccccc1)N1C(=O)C(=CC=Cc2ccccc2)SC1=S (stereo not drawn) [Compound 10, reference compound] | 2.76 × 10^−6 | 145 | − | completely destabilized |  | 35 |  |  |  |  |  |
| COc1ccc(C(c2c(O)c3ccccc3oc2=O)c2c(O)c3ccccc3oc2=O)cc1CSc1ccccn1 [Compound 7, reference compound] | 4.85 × 10^−6 | 82.5 | − | completely destabilized |  |  |  |  |  |  |  |
| O=C/C=C/c1ccc(C2=C(c3ccc(/C=C/C=O)o3)C(=O)N(Cc3ccccc3)C2=O)o1 [Compound 4] | 5.37 × 10^−6 | 75 | − | completely destabilized | 12 |  |  |  | 10 | 70 | 7 |
